# Test results as given in US20130261137A1, “Methods, Compounds and Compositions Relating to Activating a Latent Virus” (ULC BUSINESS PLC, priority 2010, published 2013).
# Tests used:
# JSC-1 cells = test: Cell viability assay (CellTiter-Glo); settings: for GCV cytotoxicity after pre-treatment with compound: pre-treatment 24 h (UCLB-15026 800 nM, taxol 80 nM), then GCV 20 or 100 μM, 48 and 72 h
# [1] = system: KSHV RTA in JSC-1 PYFP cells
# [2] = system: HIV-1 LTR in J-Lat A72 cells; test: HIV-1 LTR assay, GFP expression in J-LAT A72 cells; settings: for reduction of HIV LTR induction by 15026 compared to DMSO control: 15026 0.8 μM; for HIV-1 LTR induction by other antimicrotubule agents: taxol 0.8 μM, vinblastine 0.8 μM, ERK dependent (U0126)
# KSHV RTA in JSC-1 cells = format: cell-based
# [3] = system: KSHV (rKSHV.219) in JSC-1 cells; format: cell-based
# HIV-1 LTR in ACH2 cells = test: HIV-1 LTR induction assay, TAR RNA qPCR in ACH2 cells; settings: 15026 4 μM
# HIV-1 LTR in U1 cells = test: HIV-1 LTR induction assay, TAR RNA qPCR in U1 cells; settings: 15026 4 μM
# JSC-1 PYFP cells = settings: U0126 10 μM, 40 h
# [4] = system: KSHV RTA in JSC-1 PLuc cells; format: cell-based
# [5] = system: HIV-1 LTR of subtype A/G in LGIT cells; test: HIV-1 LTR induction, GFP in LGIT cells, LTR subtype A/G; settings: 24 hours; ERK-dependent (with or without U0126 10 μM)
# [6] = system: HIV-1 LTR of subtype C in LGIT cells; test: HIV-1 LTR induction, GFP in LGIT cells, LTR subtype C; settings: 24 hours; ERK-dependent (with or without U0126 10 μM)
# [7] = system: microtubule network in JSC-1 cells; test: Confocal immunofluorescence microscopy of microtubule network; format: cell-based; settings: 100 μM, 16 h
# Description: JSC-1 cells were grown on coverslips coated with […] (Sigma) with DMSO or UCLB-15026 (100 μM) for 16 h. JSC-1 cells were then fixed in 3% paraformaldehyde, rinsed and permeabilized in 0.02% Triton-PBS. This was followed by blocking in 2% FCS-PBS, staining with anti-tubulin antibody (Sigma), washed, and then incubated with Alexa-488 conjugated goat anti-mouse secondary antibody (Molecular Probes) before being mounted onto slides using VectaShield mounting medium containing DAPI. Images were taken using confocal microscope (Leica).
# cells (cell cycle) = settings: reported for the compound; cited from earlier work
# [8] = system: HIV-1 LTR in PBMCs from HIV-1 positive individuals; test: Ex vivo HIV-1 LTR induction assay, TAR RNA qPCR in PBMCs from HIV-1 positive individuals; format: cell-based; settings: 100 μM, 24 h
# [9] = system: HIV-1 LTR of subtype A in LGIT cells; test: HIV-1 LTR induction, GFP in LGIT cells, LTR subtype A; settings: 24 hours; ERK-dependent (with or without U0126 10 μM)
# tubulin = settings: reported, reference 21; read-out: IC50 inhibiting tubulin polymerization; cited from earlier work
# [10] = system: KSHV ORF 29 in JSC-1 cells; test: Semi-quantitative RT-PCR of KSHV late gene ORF 29 in JSC-1; format: cell-based; settings: different concentrations
# Description: Briefly, RNA was extracted from 2×10^6 cells with TRIzol (Invitrogen) and treated with DNase (Ambion), followed by phenol extraction and ethanol precipitation. Serial dilution (3×10-fold) of oligonucleotide dT (Qiagen)-primed cDNA was used for PCR amplification (Promega) of KSHV ORF 29 using forward ([…]; SEQ ID NO. 1) and reverse ([…]; SEQ ID NO. 2) primers. All samples were normalized by PCR amplification of beta-2 microglobulin (β2M) using serially diluted cDNA with forward ([…]; SEQ ID NO. 3) and reverse ([…]; SEQ ID NO. 4) primers. The PCR cycle consisting of 95° C. for 30 seconds, 50° C. for 30 seconds, and 72° C. for 30 seconds was repeated 36 times for ORF 29, and 28 times for β2M. Both set of primers amplify across splice junction and the sizes (in bp) of the expected products are: ORF 29 (cDNA—399, DNA—3650) and β2M (cDNA—301, DNA—2178).
# [11] = system: KSHV RTA in BCBL-1 PLuc cells; format: cell-based
structure (smiles),measurement,setting,value
"Nc1nc(O)c2ncn(COC(CO)CO)c2n1 [GCV, ganciclovir]",effect of GCV alone on JSC-1 proliferation,"JSC-1 cells; DMSO 24 h, then GCV 20 μM or 100 μM, 24, 48, 72 h",no detrimental effect
O=S(=O)(NCCNC/C=C/c1ccc(Br)cc1)c1cccc2cnccc12 [H89],reduction of KSHV RTA induction by 15026 compared to DMSO control,[1]; 15026 0.8 μM,35%
same,reduction of HIV LTR induction by 15026 compared to DMSO control,[2],80%
Nc1ncnc2c1ncn2[C@@H]1O[C@@H]2COP(O)(=S)O[C@H]2[C@H]1O (some centres unmarked) [Rp-cAMP],reduction of HIV LTR induction by 15026 compared to DMSO control,[2],about 40%
"CCCC(=O)[O-].[Na+] [SB, sodium butyrate]",KSHV RTA induction and induction kinetics (western blot),KSHV RTA in JSC-1 cells,delayed-kinetics
"CCCCCCCCCCCCCC(=O)O[C@@H]1[C@@H](C)[C@@]2(O)[C@@H](C=C(CO)C[C@]3(O)C(=O)C(C)=C[C@@H]23)[C@@H]2C(C)(C)[C@]12OC(C)=O [TPA, 12-O-tetradecanoyl-phorbol-13-acetate]",% RFP-positive cells,[3],−1.8%
same,KSHV RTA induction and induction kinetics (western blot),KSHV RTA in JSC-1 cells,immediate-kinetics
same,exposure required for KSHV induction,KSHV RTA in JSC-1 cells,< 1 h
N#CC(=C(/N)Sc1ccccc1N)/C(C#N)=C(\N)Sc1ccccc1N [U0126],effect of ERK inhibitor on LTR induction by 15026 (TAR RNA),HIV-1 LTR in ACH2 cells; U0126 10 μM,inhibited 15026 activity
same,effect of ERK inhibitor on LTR induction by 15026 (TAR RNA),HIV-1 LTR in U1 cells; U0126 10 μM,inhibited 15026 activity
same,effect of ERK inhibitor on LTR induction by 15026 (GFP),"[2]; U0126 10 μM, 15026 4 μM",inhibited 15026 activity
same,cell viability (trypan blue exclusion),JSC-1 PYFP cells,no significant effect on cell viability
COc1ccc(-c2csc3c2-n2cccc2C3=O)cc1 [UCLB-15026],RTA expression (% RLU normalized to TPA control/10^5 cells),[4],activate RTA expression
same,GFP expression driven by LTR of subtype A/G,[5],induced GFP expression
same,GFP expression driven by LTR of subtype C,[6],induced GFP expression
same,GCV cytotoxicity after pre-treatment with compound,JSC-1 cells,enhanced GCV cytotoxicity
same,KSHV reactivation (% YFP-positive cells normalized to TPA control),[1],reactivated KSHV to similar levels
same,concentration range of half their maximal activities (KSHV reactivation),[1],nanomolar range
same,effect on microtubule network (anti-tubulin immunofluorescence),[7],disrupts microtubule network
same,cell cycle effect,cells (cell cycle),accumulated in the G2/M phases of cell cycle
same,"TAR RNA copies compared with DMSO, three PBMC cultures",[8],higher TAR RNA copies in two out of three PBMC cultures
same,"TAR RNA copies compared with DMSO, volunteer 1",[8]; PBMC culture,about 5 fold
same,"TAR RNA copies compared with DMSO, volunteer 2",[8]; PBMC culture,about 200 fold
same,HIV-1 LTR activity (TAR RNA expression),HIV-1 LTR in ACH2 cells,induced LTR activity
same,GFP expression driven by LTR of subtype A,[9],induced GFP expression
same,IC50,tubulin,2.9 µM
same,expression of KSHV late gene ORF 29,[10],dose-dependent expression
same,HIV-1 LTR activity (TAR RNA expression),HIV-1 LTR in U1 cells,induced LTR activity
same,HIV-1 LTR activity (GFP expression),"[2]; 15026 4 μM, 24 hours",induced LTR activity
same,LTR-mediated GFP expression,"[2]; UCLB-15026 at different concentrations, 24 or 40 h",substantially induced
same,RTA induction (% RLU normalized to TPA control/10^5 cells),[11],induced RTA
O=c1c(-c2ccc(O)cc2)coc2cc(O)cc(O)c12 [genistein],KSHV RTA induction by other antimicrotubule agents,[1],can induce
same,KSHV lytic cycle induction (% YFP-positive cells normalized to TPA),[1],can reactivate KSHV
same,HIV-1 LTR activity (% GFP-positive cells normalized to TPA),"[2]; genistein 100 μM, 24 h post-treatment",induction of HIV-1 LTR activity
same,HIV-1 LTR induction by other antimicrotubule agents,[2]; genistein 100 μM,can induce
"CC(=O)O[C@H]1C(=O)[C@@]2(C)[C@H]([C@H](OC(=O)c3ccccc3)[C@]3(O)C[C@H](OC(=O)[C@H](O)[C@@H](NC(=O)c4ccccc4)c4ccccc4)C(C)=C1C3(C)C)[C@]1(OC(C)=O)CO[C@@H]1C[C@@H]2O [taxol, paclitaxel]",RTA expression (% RLU normalized to TPA control/10^5 cells),[4],activate RTA expression
same,GCV cytotoxicity after pre-treatment with compound,JSC-1 cells,small but statistically significant increase in cell cytotoxicity
same,KSHV reactivation (% YFP-positive cells normalized to TPA control),[1],reactivated KSHV to similar levels
same,concentration range of half their maximal activities (KSHV reactivation),[1],nanomolar range
same,expression of KSHV late gene ORF 29,[10],dose-dependent expression
same,HIV-1 LTR induction by other antimicrotubule agents,[2]; genistein 100 μM,induce transcriptional activities
same,RTA induction (% RLU normalized to TPA control/10^5 cells),[11],induced RTA
CC[C@]1(O)C[C@@H]2CN(CCc3c([nH]c4ccccc34)[C@@](C(=O)OC)(c3cc4c(cc3OC)N(C)[C@H]3[C@@](O)(C(=O)OC)[C@H](OC(C)=O)[C@]5(CC)C=CCN6CC[C@]43[C@@H]65)C2)C1 [vinblastine],KSHV RTA induction by other antimicrotubule agents,[1],can induce
same,HIV-1 LTR induction by other antimicrotubule agents,[2]; genistein 100 μM,can induce
